According to US20020183384A1, “Methods of treating nuclear factor-kappa B mediated diseases and disorders” (priority 2001, published 2002):

What follows are molecules tested on NF-κB mediated transcription (assay: NF-κB driven β-lactamase reporter assay in ECV-304 NF-κB.βlaZ cells (AURORA CCF2 fluorescence)). Settings: 10 μM compound; ECV-304 NF-κB.βlaZ cells stimulated with 10 ng/mL TNF-α or 100 pg/mL IL-1β, 6 hours at 37° C.; inhibition of maximum blue/green ratio.
Assay type: cell-based, human
Excerpt: Introduction: Described below is an in vitro, cell-based, high throughput screening assay that reliably identifies inhibitors of NF-κB mediated transcription.
The assay takes advantage of AURORA (Aurora Bioscience Corporation, La Jolla, Calif.) fluorescence technology. Endothelial cell vein-304 (ECV-304) cells, an endothelial-like immortalized cell type, may be stably transfected with a plasmid vector containing the cDNA for the enzyme β-lactamase (under the control of a basal promoter, Stratagene pNFκB-luc vector) and 5 copies of an human immunodeficiency virus-1 (HIV-1) NF-κB binding site. ECV-304 cells are described by Takahashi K. et al. in Spontaneous Transformation and Immobilization of Human Endothelial Cells, In Vitro Cell. Dev. Biol. 1990;25:265-274. Activation of NF-κB in ECV-304 by cytokines such as TNF-α or interleuken-1 beta (IL-1β) results in the production of β-lactamase, which cleaves a green fluorescent substrate (excitation/emission wavelengths 395 nm1530 nm) to yield a blue fluorescent product (excitation/emission wavelengths 395 nm/460 nm). Visually, the uncleaved green fluorescent substrate is sequestered intracellularly and emits green fluorescence, while the cleaved product emits blue fluorescence. Fluorescence is quantitated spectrophotometrically, and the spectral intensity of blue fluorescence versus green fluorescence can be used to calculate the degree of activation of NF-κB.
The assay was performed as outlined here and described in detail below. ECV-304 cells permanently transfected with the NF-κB driven β-lactamase gene (ECV-304 NF-κB.βlaZ) were plated in clear-bottom, black 96-well plates (1.25×10^4 cells/well) in media-199 (M-199) media containing 2% fetal bovine serum (FBS). […] The AURORA fluorescent disclosing reagent was then added. After one additional hour, the plates were read in a fluorometer at the blue 395 nm/460 nm (excitation/emission) and green 395 nm/530 nm wavelengths. Then the blue/green emission ratio was calculated. […] An IC50 for said sulfonylaminocarbonyl derivative was determined from a dose-response curve. This assay was designed to be optionally run in either high or low throughput screening modes.
Five copies of the HIV-1 NF-κB binding site (5′-[…]-3′) along with a TATA box were inserted into the EcorRI/BamHI sites of plasmid pMCRBlaZ to create plasmid p5×KBBlaZ, which procedure is illustrated in Scheme 1 below. [formula]
Cells were selected for antibiotic resistance with Zeocin for approximately 2 weeks. After the stable population had been expanded to a significant number of cells, it was stimulated with IL-1β and stained with AURORA CCF2 dye, a membrane permeant, intracellularly-trapped, fluorescent substrate. Cells that fluoresced blue (indicating a positive response of the NF-κB/β-lactamase reporter to stimulation by IL-1β) in the stimulated/stained population were then sorted by flow cytometry into a pool. The pool was expanded and stained with CCF2, and then the cells that fluoresced green from this unstimulated population (indicating a low background of the NF-κB/β-lactamase reporter construct) were cloned by flow cytometry after adding 1 cell per well in 96-well plates. Clones were allowed to expand. Each cloned cell line was then examined for fold stimulation after stimulation with IL-1β using a CCF2 reporter assay, and these stimulated cells were compared to unstimulated cells.
Cells: ECV-304 NF-κB β-Lactamase clone 1E8
Inhibitors: Prepared stock solutions of aminosulfonyl derivatives at 10 mM concentration in DMSO;
c) Added 10 μL of B into appropriate well in assay plate (the final concentration of drug is 10 μM), and […]
CCCCCCCCCCN(CCCCCCCCCC)S(=O)(=O)NC(=O)Nc1c(C(C)C)cccc1C(C)C [Example 75, Urea, N-[2,6-bis (1-methylethyl)phenyl]-N′-[(didecylamino)sulfonyl]-] was tested, and the “Percent Inhibition at 10 μM” value was less than 10%.

Same assay, conditions: Homo sapiens, ECV-304, 6 h, 10 μM compound; ECV-304 NF-κB.βlaZ cells stimulated with 10 ng/mL TNF-α or 100 pg/mL IL-1β, 6 hours at 37° C.; inhibition of maximum blue/green ratio; read-out: Percent Inhibition at 10 μM
With CCN(CC)S(=O)(=O)NC(=O)Nc1c(C(C)C)cccc1C(C)C [Example 44, Urea, N-[2,6-bis(1-methylethyl)phenyl]-N′-[(diethylamino)sulfonyl]-] the inhibition at 10 µM was less than 10%.
Work on CCCCCCCCN(CCCCCCCC)S(=O)(=O)NC(=O)Nc1c(C(C)C)cccc1C(C)C [Example 23, N-[2,6-bis(1-methylethyl)phenyl]-N′-[(dioctylamino)sulfonyl]-urea] yielded an inhibition at 10 µM of 38.7%.
In the case of C/C(=C\c1ccccc1)C(=O)NS(=O)(=O)Oc1c(C(C)C)cccc1C(C)C [Example 236, ((E)-2-Methyl-3-phenyl-acryloyl)-sulfamic acid 2,6-diisopropyl-phenyl ester], the inhibition at 10 µM is reported as 79.4%.
CCCCCCCCCCCCCCS(=O)(=O)NC(=O)Nc1c(C(C)C)cccc1C(C)C [Example 240, N-[2,6-bis(1-methylethyl)phenyl]-N′-(tetradecylsulfonyl)-urea] showed an inhibition at 10 µM of 10.3%.
With CC(C)c1cccc(C(C)C)c1OS(=O)(=O)NC(=O)C(=O)c1ccccc1 [Example 157, (Oxo-phenyl-acetyl)-sulfamic acid 2,6-diisopropyl-phenyl ester] the inhibition at 10 µM was less than 10%.
CC(C)c1cc(C(C)C)c(CC(=O)NS(=O)(=O)Oc2c(C(C)C)cc([N+](=O)[O-])cc2C(C)C)c(C(C)C)c1 [Example 182, [(2,4,6-Triisopropyl-phenyl)-acetyl]-sulfamic acid 2,6-diisopropyl-4-nitro-phenyl ester] showed an inhibition at 10 µM of 69.8%.
Molecule CC(C)c1cccc(C(C)C)c1CC(=O)NS(=O)(=O)Oc1c(C(C)C)cccc1C(C)C [Example 122, Sulfamic acid, [[2,6-bis(1-methylethyl)phenyl]acetyl]-, 2,6-bis(1-methylethyl)-phenyl ester] has an inhibition at 10 µM of 65.3%.
For CC(C)c1cccc(C(C)C)c1NC(=O)NS(=O)(=O)N1CCC(c2ccccc2)CC1 [Example 35, N-[2,6-bis(1-methylethyl)phenyl]-N′-[(4-phenyl-1-piperidinyl)-sulfonyl]-urea], the inhibition at 10 µM was less than 10%.
In the case of CC[C@H](C=C[C@@H](C)[C@H]1CC[C@H]2[C@@H]3CC=C4C[C@H](OC(=O)NS(=O)(=O)Oc5c(C(C)C)cccc5C(C)C)CC[C@]4(C)[C@H]3CC[C@]12C)C(C)C [Example 118, Stigmasta-5,22-dien-3-ol, [[2,6-bis(1-methylethyl)phenoxy]sulfonyl]-carbamate, (3α)-], the inhibition at 10 µM is reported as less than 10%.
CC(C)c1cc(C(C)C)c(CC(=O)NS(=O)(=O)Oc2c(C(C)C)cc(F)cc2C(C)C)c(C(C)C)c1 [Example 185, [(2,4,6-Triisopropyl-phenyl)-acetyl]-sulfamic acid 4-fluoro-2,6-diisopropyl-phenyl ester] gave an inhibition at 10 µM of 73.9%.
CC(C)c1cccc(C(C)C)c1OS(=O)(=O)NC(=O)C(c1ccccc1)C1CCCC1 (stereo not shown) [Example 161, (Cyclopentyl-phenyl-acetyl)-sulfamic acid 2,6-diisopropyl-phenyl ester] gave an inhibition at 10 µM of 51.5%.
With CC(C)c1cccc(C(C)C)c1NC(=O)NS(=O)(=O)N(Cc1ccccc1)Cc1ccccc1 [Example 17, N-[2,6-bis(1-methylethyl)phenyl]-N′-[[bis(phenylmethyl)amino]-sulfonyl]-urea] the inhibition at 10 µM was 43.8%.

Same assay, conditions: Homo sapiens; 10 μM compound; ECV-304 NF-κB.βlaZ cells stimulated with 10 ng/mL TNF-α or 100 pg/mL IL-1β, 6 hours at 37° C.; inhibition of maximum blue/green ratio; read-out: Percent Inhibition at 10 μM
In the case of CCCCCCCCCCCCOS(=O)(=O)NC(=O)Oc1c(-c2ccccc2)cccc1-c1ccccc1 [Example 92, Carbamic acid, [(dodecyloxy)sulfonyl]-, [1,1′:3′,1″-terphenyl]-2′-yl ester], the inhibition at 10 µM is reported as less than 10%.
Molecule CC(C)(C)c1cccc(C(C)(C)C)c1OC(=O)NS(=O)(=O)Nc1ccccc1 [Example 15, Carbamic acid, [(phenylamino)sulfonyl]-, 2,6-bis(1,1-dimethylethyl)-phenyl ester] has an inhibition at 10 µM of 12.6%.
CCCCCCCCCCCCCCCCOS(=O)(=O)NC(=O)Oc1c(C(C)C)cccc1C(C)C [Example 107, Carbamic acid, [(hexadecyloxy)sulfonyl]-, 2,6-bis(1-methylethyl)phenyl ester] showed an inhibition at 10 µM of less than 10%.
